The text below walks through data of patent US20230027929A1, “MrgprX2 Antagonists and Uses Thereof” (Dermira, Inc., priority 2019, published 2023).

The target of the experiment is T1, hMrgpMRGPRX2 (Homo sapiens, UniProt Q96LB1).
T1 construct: expressed in transfected cells
T1 sequence (Q96LB1 1-330): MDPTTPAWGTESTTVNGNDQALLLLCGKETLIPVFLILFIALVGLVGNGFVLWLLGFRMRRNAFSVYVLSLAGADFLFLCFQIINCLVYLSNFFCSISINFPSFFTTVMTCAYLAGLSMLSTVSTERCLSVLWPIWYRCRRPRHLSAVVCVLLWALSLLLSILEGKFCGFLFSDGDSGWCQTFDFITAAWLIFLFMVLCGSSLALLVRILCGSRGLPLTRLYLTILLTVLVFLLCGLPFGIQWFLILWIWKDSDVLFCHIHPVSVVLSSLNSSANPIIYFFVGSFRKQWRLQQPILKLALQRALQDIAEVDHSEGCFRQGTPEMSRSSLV
The experiment in a line: FLIPR intracellular calcium mobilization, antagonist activity in recombinant hMrgpMRGPRX2 expressing cells. The format is cell-based. The conditions noted are these: read-out: Human MrgprX2 Antagonist pIC50 (converted). The text has this:
Potent and selective hMrgpMRGPRX2 compounds have been generated from compounds identified during a high throughput screening (HTS) campaign and followed up with cycles of structure activity based medicinal chemistry efforts. These compounds were characterized in recombinant hMrgpMRGPRX2 expressing cells for their antagonist activity and the potency was confirmed in the human mast cell line LAD-2, where the target is endogenously expressed. The assays used to determine potencies are functional read-out looking at intracellular calcium mobilization using the FLIPR™ technology. In these FLIPR assays, we test the identified compounds using recombinant cellular systems expressing mouse MrgprB2, mouse MrgprA1, gerbil MrgpMRGPRX2 orthologue, Chinese hamster MrgpMRGPRX2 orthologue and cynomolgus monkey MrgpMRGPRX2 orthologue, respectively for orthologue activity.
For the compound `CC1(C)CCN1C(=O)Nc1ccc(Oc2ccc(F)c(F)c2)cn1` [Compound E125], the IC50 was 468 nM. On to `CCN(C[C@@H](O)C(F)(F)F)C(=O)Nc1ccc(Oc2cc(C#N)ccc2F)cn1` [Compound E126], for which the IC50 was 7760 nM. `CCN(CC(O)C(F)(F)F)C(=O)Nc1ccc(Oc2cccc(F)c2)cn1` (centres unmarked) [Compound E127]: the IC50 is 15.8 nM. Consider `CCN(C[C@@H](O)C(F)(F)F)C(=O)Nc1ccc(Oc2cccc(F)c2C#N)cn1` [Compound E128], for which the IC50 was 120 nM. For the compound `CCN(C[C@@H](O)C(F)(F)F)C(=O)Nc1ccc(Oc2cc(F)ccc2C#N)cn1` [Compound E129], the IC50 is 1950 nM. Regarding `O=C(Nc1ccc(Oc2cc(F)cc(F)c2)cn1)N1CC[C@@H](CO)C1` [Compound E130], the IC50 is 7080 nM.

On to `O=C(NCC(O)C(F)(F)F)Nc1ccc(Oc2cc(F)cc(F)c2)cn1` (centres unmarked) [Compound E131], for which the IC50 is 1000 nM. As for `O=C(Nc1ccc(Oc2cc(F)cc(F)c2)cn1)N1CCC[C@@H]1CO` [Compound E132], the IC50 was 575 nM. The value for `O=C(Nc1ccc(Oc2cc(F)cc(F)c2)cn1)N1CC[C@H](CO)C1` [Compound E133] was 6170 nM; that for `CCN(C[C@@H](O)C(F)(F)F)C(=O)Nc1ccc(Oc2cccc(C#N)c2F)cn1` [Compound E134] was 468 nM; that for `CCN(C[C@@H](O)C(F)(F)F)C(=O)Nc1ccc(Oc2c(F)cccc2F)cn1` [Compound E135] was 8.13 nM.

As for `CCN(C[C@@H](O)C(F)(F)F)C(=O)Nc1ccc(Oc2c(F)cccc2C#N)cn1` [Compound E136], the IC50 was 158 nM. Turning to `CCN(C[C@@H](O)C(F)(F)F)C(=O)Nc1ccc(Oc2ccc(F)cc2F)cn1` [Compound E137], the IC50 is 2.09 nM. As for `CCN(C[C@@H](O)C(F)(F)F)C(=O)Nc1ccc(OCc2cccc(F)c2)cn1` [Compound E138], the IC50 is 871 nM.

Regarding `CN(C[C@@](C)(O)C(F)(F)F)C(=O)Nc1ccc(Oc2ccc(F)c(F)c2)cn1` [Compound E139, 3-[5-(3,4-difluorophenoxy)-2-pyridyl]-1-methyl-1-[(2R)-3,3,3-trifluoro-2-hydroxy-2-methyl-propyl]urea], the IC50 is 15.1 nM. As for `CN(C[C@@](C)(O)C(F)(F)F)C(=O)Nc1ccc(Oc2cc(F)cc(F)c2)cn1` [Compound E140, 3-[5-(3,5-difluorophenoxy)-2-pyridyl]-1-methyl-1-[(2R)-3,3,3-trifluoro-2-hydroxy-2-methyl-propyl]urea], the IC50 is 1.58 nM. Turning to `CN(C[C@@](C)(O)C(F)(F)F)C(=O)Nc1ccc(Oc2ccc(F)cc2F)cn1` [Compound E141, 3-[5-(2,4-difluorophenoxy)-2-pyridyl]-1-methyl-1-[(2R)-3,3,3-trifluoro-2-hydroxy-2-methyl-propyl]urea], the IC50 is 2.04 nM. As to `CCN(C[C@@H](O)C(F)(F)F)C(=O)Nc1ccc(-n2cccn2)cn1` [Compound E142, 1-ethyl-3-(5-pyrazol-1-yl-2-pyridyl)-1-[(2R)-3,3,3-trifluoro-2-hydroxy-propyl]urea], the IC50 was 8710 nM. In the case of `CC(C)C(=O)Nc1cc(Oc2cc(F)cc(F)c2)ccn1` [Compound E143, N-[4-(3,5-difluorophenoxy)-2-pyridyl]-2-methyl-propanamide], the IC50 was 200 nM. Then `O=C(Nc1cc(Oc2cc(F)cc(F)c2)ccn1)C1CC1` [Compound E144, N-[4-(3,5-difluorophenoxy)-2-pyridyl]cyclopropanecarboxamide], with 1000 nM. On to `CC(C)C(=O)Nc1cc(Oc2ccccc2)ccn1` [Compound E145, 2-methyl-N-(4-phenoxy-2-pyridyl)propanamide], for which the IC50 is 794 nM. Then `CC1(C)C(C(=O)Nc2cc(N3CCCC3)ccn2)C1(C)C` [Compound E146, 2,2,3,3-tetramethyl-N-(4-pyrrolidin-1-yl-2-pyridyl)cyclopropanecarboxamide], with 7940 nM; and `CC1(C)C(C(=O)Nc2cc(Oc3cncc(F)c3)ccn2)C1(C)C` [Compound E147, N-[4-[(5-fluoro-3-pyridyl)oxy]-2-pyridyl]-2,2,3,3-tetramethyl-cyclopropanecarboxamide], with 7.94 nM. As for `CC1(C)C(C(=O)Nc2cc(Oc3ccc(F)nc3)ccn2)C1(C)C` [Compound E148, N-[4-[(6-fluoro-3-pyridyl)oxy]-2-pyridyl]-2,2,3,3-tetramethyl-cyclopropanecarboxamide], the IC50 was 30.2 nM. Take `CC1(C)C(C(=O)Nc2cc(OCC(F)(F)F)ccn2)C1(C)C` [Compound E149, 2,2,3,3-tetramethyl-N-[4-(2,2,2-trifluoroethoxy)-2-pyridyl]cyclopropanecarboxamide]: the IC50 is 2000 nM.

For `CCN(C[C@@H](O)C(F)(F)F)C(=O)Nc1cc(Oc2ccc(F)c(F)c2)ccn1` [Compound E150, 3-[4-(3,4-difluorophenoxy)-2-pyridyl]-1-ethyl-1-[(2R)-3,3,3-trifluoro-2-hydroxy-propyl]urea], the IC50 was 3.47 nM. The value for `CCN(C[C@@H](O)C(F)(F)F)C(=O)Nc1cc(Oc2ccccc2F)ccn1` [Compound E151] was 3.63 nM; that for `CN(C[C@@H](O)C(F)(F)F)C(=O)Nc1cc(Oc2ccc(F)c(F)c2)ccn1` [Compound E152] was 263 nM; that for `Cc1cnc(NC(=O)N(C)C[C@@H](O)C(F)(F)F)cc1Oc1ccc(F)c(F)c1` [Compound E153] was 245 nM. Then `CCN(C[C@@H](O)C(F)(F)F)C(=O)Nc1cc(Oc2cccc(F)c2)ccn1` [Compound E154], with 1.29 nM; and `CCN(C[C@@H](O)C(F)(F)F)C(=O)Nc1cc(Oc2ccc(F)cc2)ccn1` [Compound E155], with 25.1 nM; and `CCN(C[C@@H](O)C(F)(F)F)C(=O)Nc1cc(Oc2cccc(C#N)c2)ccn1` [Compound E156], with 1550 nM. With `CCN(C[C@@H](O)C(F)(F)F)C(=O)Nc1cc(Oc2ccc(C#N)cc2)ccn1` [Compound E157], the IC50 was 1580 nM. The value for `CCN(C[C@@H](O)C(F)(F)F)C(=O)Nc1cc(Oc2ccccc2C#N)ccn1` [Compound E158] was 17.8 nM; that for `CCN(C[C@@H](O)C(F)(F)F)C(=O)Nc1cc(Oc2ccc(F)cc2F)ccn1` [Compound E159] was 14.1 nM; that for `CN(C[C@@](C)(O)C(F)(F)F)C(=O)Nc1cc(Oc2cccc(F)c2)ccn1` [Compound E160] was 42.7 nM. As for `CCN(C[C@@H](O)C(F)(F)F)C(=O)Nc1cc(Oc2cccc(F)c2)c(F)cn1` [Compound E161], the IC50 is 0.891 nM. Turning to `CCN(C[C@@H](O)C(F)(F)F)C(=O)Nc1cc(Oc2cncc(F)c2)ccn1` [Compound E162, 1-ethyl-3-[4-[(5-fluoro-3-pyridyl)oxy]-2-pyridyl]-1-[(2R)-3,3,3-trifluoro-2-hydroxy-propyl]urea], the IC50 is 19.1 nM. With `CCN(C[C@@H](O)C(F)(F)F)C(=O)Nc1cc(Oc2cc(F)cc(F)c2)ccn1` [Compound E163, 3-[4-(3,5-difluorophenoxy)-2-pyridyl]-1-ethyl-1-[(2R)-3,3,3-trifluoro-2-hydroxy-propyl]urea], the IC50 is 0.575 nM. In the case of `CC(C)C(=O)Nc1ccc(-c2ccccc2)cn1` [Compound E164, 2-methyl-N-(5-phenyl-2-pyridyl)propanamide], the IC50 is 251 nM. The value for `CC(C)C(=O)Nc1ccc(-c2ccc(F)cc2)cn1` [Compound E165] was 1260 nM; that for `CC(C)C(=O)Nc1ccc(-c2cccc(F)c2)cn1` [Compound E166] was 63.1 nM. The value for `CC(C)C(=O)Nc1ccc(-c2ccccc2F)cn1` [Compound E167] was 316 nM; that for `CC(C)C(=O)Nc1cc(-c2ccccc2)ccn1` [Compound E168] was 7940 nM.

Regarding `COc1ccccc1-c1ccc(NC(=O)C(C)C)nc1` [Compound E169], the IC50 was 2000 nM. For the compound `CC(C)C(=O)Nc1ccc(-c2cccc(C#N)c2)cn1` [Compound E170], the IC50 is 200 nM.

In the case of `COc1cccc(-c2ccc(NC(=O)C(C)C)nc2)c1` [Compound E171], the IC50 was 316 nM. The value for `COc1ccc(-c2ccc(NC(=O)C(C)C)nc2)cc1` [Compound E172] was 316 nM. Then `CC(C)C(=O)Nc1ccc(-c2cc(F)cc(F)c2)cn1` [Compound E173], with 31.6 nM. Regarding `CC(C)C(=O)Nc1ccc(-c2cc(F)cc(C#N)c2)cn1` [Compound E174], the IC50 is 100 nM.

For `CC1(C)C(C(=O)Nc2ccc(-c3cn[nH]c3)cn2)C1(C)C` [Compound E175], the IC50 was 2510 nM.

Regarding `CC1(C)C(C(=O)Nc2ccc(-c3ccn[nH]3)cn2)C1(C)C` [Compound E176], the IC50 is 120 nM. On to `CC(C)C(=O)Nc1ccc(C2CCCC2)cn1` [Compound E177, N-(5-cyclopentyl-2-pyridyl)-2-methyl-propanamide], for which the IC50 was 6310 nM. As for `CC(C)(C#N)C(=O)Nc1ccc(-c2cc(F)cc(F)c2)cn1` [Compound E178, 2-cyano-N-[5-(3,5-difluorophenyl)-2-pyridyl]-2-methyl-propanamide], the IC50 is 1260 nM. With `O=C(Nc1ccc(-c2cc(F)cc(F)c2)cn1)C1CC1` [Compound E179], the IC50 was 200 nM. As for `CC1(C)CC1C(=O)Nc1ccc(-c2cc(F)cc(F)c2)cn1` (centres unmarked) [Compound E180], the IC50 is 12.6 nM.
